Test system: snout beetles
Test: Field test of individual odorants in yellow Delta traps
Type: in vivo, Eremnus setulosus and/or Phlyctinus calosus
Conditions: for Numbers of snout beetles caught in yellow Delta traps, Mean: mean of six replications, traps collected after one week; for Numbers of snout beetles caught in yellow Delta traps, Rep. 1: replication 1; for Numbers of snout beetles caught in yellow Delta traps, Rep. 1 / Numbers of snout beetles caught in yellow Delta traps, Rep. 2 / Numbers of snout beetles caught in yellow Delta traps, Rep. 3 / Numbers of snout beetles caught in yellow Delta traps, Rep. 4 / Numbers of snout beetles caught in yellow Delta traps, Rep. 5 / Numbers of snout beetles caught in yellow Delta traps, Rep. 6: traps at ground level against apple tree trunks, collected after one week; for Numbers of snout beetles caught in yellow Delta traps, Rep. 2: replication 2; for Numbers of snout beetles caught in yellow Delta traps, Rep. 3: replication 3; for Numbers of snout beetles caught in yellow Delta traps, Rep. 4: replication 4; for Numbers of snout beetles caught in yellow Delta traps, Rep. 5: replication 5; for Numbers of snout beetles caught in yellow Delta traps, Rep. 6: replication 6
Excerpt: Yellow Delta traps fitted with bottom sticky pads upon which odorant dispensers of the various test odorants were applied, were placed on ground level against the trunks of bearing apple trees in the Koue Bokkeveld area in the Western Cape Province, South Africa. Test orchards infested with snout beetles were selected on the farms Dennekruin and Voorsorg in the Ceres-Koue-Bokkeveld area.
Unloaded or “blank” traps with no odorants, but identical to the other traps in all other respects, were used as a control. There are no attractants registered for use on snout beetles on deciduous fruit in South Africa with which to compare the experimental results.
After one week the traps were collected and the snout beetles caught were counted and noted. Six replications were used per odorant tested. In Table 1 below the summarised results of the experiments are presented.

Structure (SMILES)	Numbers of snout beetles caught in yellow Delta traps, Mean	Numbers of snout beetles caught in yellow Delta traps, Rep. 1	Numbers of snout beetles caught in yellow Delta traps, Rep. 2	Numbers of snout beetles caught in yellow Delta traps, Rep. 3	Numbers of snout beetles caught in yellow Delta traps, Rep. 4	Numbers of snout beetles caught in yellow Delta traps, Rep. 5	Numbers of snout beetles caught in yellow Delta traps, Rep. 6
COC1=C(C)OC(C)C1=O (centres unmarked) [2,5-Dimethyl-4-methoxy-3(2H)-furanone]	3.5	2	4	3	2	3	7
COc1cccc(C(C)=O)c1 [3-Methoxy acetophenone]	2.5	3	1	6	2	1	2
CC(=O)CCC(C)C [5-Methyl-2-hexanone]	2.7	4	1	1	5	3	2
COc1ccccc1 [Anisole]	2.7	4	1	3	3	2	3
O=C(O)C1CC1 [Cyclopropane carboxylic acid]	7.8	6	7	5	7	3	19

— US9314019B2, “Snout beetle attractant” (priority 2011, dated 2016)
